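Following 48 hours of exposure in 96-well plates, responses at five concentrations were used to interpolate endpoints linearly. The concentration for 50% growth inhibition is given as GI50. TGI denotes the concentration required for complete inhibition of growth.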
What was measured:
Assay in all cases: NCI-60 cell line screen, 48 h
U251 CNS = test system: U251 CNS
HCT-15 colon = test system: HCT-15 colon
DMS 273 small cell lung = test system: DMS 273 small cell lung
SNB-19 CNS = test system: SNB-19 CNS
M14 melanoma = test system: M14 melanoma
HL-60(TB) leukemia = test system: HL-60(TB) leukemia
NCI-H522 lung = test system: NCI-H522 lung
HT29 colon = test system: HT29 colon
KM12 colon = test system: KM12 colon
SF-268 CNS = test system: SF-268 CNS
OVCAR-5 ovarian = test system: OVCAR-5 ovarian
SW-620 colon = test system: SW-620 colon
ACHN renal = test system: ACHN renal
SNB-75 CNS = test system: SNB-75 CNS
OVCAR-8 ovarian = test system: OVCAR-8 ovarian
DLD-1 colon = test system: DLD-1 colon
NCI-H23 lung = test system: NCI-H23 lung
OVCAR-4 ovarian = test system: OVCAR-4 ovarian
CAKI-1 renal = test system: CAKI-1 renal
NCI-H460 lung = test system: NCI-H460 lung
HCC-2998 colon = test system: HCC-2998 colon
SK-MEL-2 melanoma = test system: SK-MEL-2 melanoma
M19-MEL melanoma = test system: M19-MEL melanoma
OVCAR-3 ovarian = test system: OVCAR-3 ovarian
CCRF-CEM leukemia = test system: CCRF-CEM leukemia
KM20L2 colon = test system: KM20L2 colon
HCT-116 colon = test system: HCT-116 colon
DMS 114 small cell lung = test system: DMS 114 small cell lung
SF-295 CNS = test system: SF-295 CNS
SN12C renal = test system: SN12C renal
786-0 renal = test system: 786-0 renal
IGROV1 ovarian = test system: IGROV1 ovarian
SK-OV-3 ovarian = test system: SK-OV-3 ovarian
RXF 393 renal = test system: RXF 393 renal
SK-MEL-5 melanoma = test system: SK-MEL-5 melanoma
EKVX NSCLC = test system: EKVX NSCLC
A549 NSCLC = test system: A549 NSCLC
NCI-H226 lung = test system: NCI-H226 lung
UACC-257 melanoma = test system: UACC-257 melanoma
K-562 leukemia = test system: K-562 leukemia
SF-539 CNS = test system: SF-539 CNS
UACC-62 melanoma = test system: UACC-62 melanoma
UO-31 renal = test system: UO-31 renal
HOP-62 NSCLC = test system: HOP-62 NSCLC
RPMI-8226 leukemia = test system: RPMI-8226 leukemia
MALME-3M melanoma = test system: MALME-3M melanoma
SNB-78 CNS = test system: SNB-78 CNS
TK-10 renal = test system: TK-10 renal
HOP-92 NSCLC = test system: HOP-92 NSCLC
SK-MEL-28 melanoma = test system: SK-MEL-28 melanoma
A498 renal = test system: A498 renal
LOX IMVI melanoma = test system: LOX IMVI melanoma
MOLT-4 leukemia = test system: MOLT-4 leukemia

## O=[N+]([O-])c1ccc2c(c1)[O][Sn]([I])([I])[O]2
U251 CNS
  GI50: > 100 µM
  TGI: > 100 µM
HCT-15 colon
  GI50: 54.4 µM
  TGI: > 100 µM
DMS 273 small cell lung
  GI50: 71.1 µM
  TGI: > 100 µM
SNB-19 CNS
  GI50: > 100 µM
  TGI: > 100 µM
M14 melanoma
  GI50: > 100 µM
  TGI: > 100 µM
HL-60(TB) leukemia
  GI50: > 100 µM
  TGI: > 100 µM
NCI-H522 lung
  GI50: 61.4 µM
  TGI: > 100 µM
HT29 colon
  GI50: > 100 µM
  TGI: > 100 µM
KM12 colon
  GI50: > 100 µM
  TGI: > 100 µM
SF-268 CNS
  GI50: > 100 µM
  TGI: > 100 µM
OVCAR-5 ovarian
  GI50: > 100 µM
  TGI: > 100 µM
SW-620 colon
  GI50: > 100 µM
  TGI: > 100 µM
ACHN renal
  GI50: > 100 µM
  TGI: > 100 µM
SNB-75 CNS
  GI50: > 100 µM
  TGI: > 100 µM
OVCAR-8 ovarian
  GI50: > 100 µM
  TGI: > 100 µM
DLD-1 colon
  GI50: > 100 µM
  TGI: > 100 µM
NCI-H23 lung
  GI50: 60 µM
  TGI: > 100 µM
OVCAR-4 ovarian
  GI50: > 100 µM
  TGI: > 100 µM
CAKI-1 renal
  GI50: > 100 µM
  TGI: > 100 µM
NCI-H460 lung
  GI50: > 100 µM
  TGI: > 100 µM
HCC-2998 colon
  GI50: > 100 µM
  TGI: > 100 µM
SK-MEL-2 melanoma
  GI50: > 100 µM
  TGI: > 100 µM
M19-MEL melanoma
  GI50: 85.3 µM
  TGI: > 100 µM
OVCAR-3 ovarian
  GI50: > 100 µM
  TGI: > 100 µM
CCRF-CEM leukemia
  GI50: 42.3 µM
  TGI: > 100 µM
KM20L2 colon
  GI50: > 100 µM
  TGI: > 100 µM
HCT-116 colon
  GI50: > 100 µM
  TGI: > 100 µM
DMS 114 small cell lung
  GI50: > 100 µM
  TGI: > 100 µM
SF-295 CNS
  GI50: > 100 µM
  TGI: > 100 µM
SN12C renal
  GI50: > 100 µM
  TGI: > 100 µM
786-0 renal
  GI50: > 100 µM
  TGI: > 100 µM
IGROV1 ovarian
  GI50: > 100 µM
  TGI: > 100 µM
SK-OV-3 ovarian
  GI50: > 100 µM
  TGI: > 100 µM
RXF 393 renal
  GI50: 52.1 µM
  TGI: > 100 µM
SK-MEL-5 melanoma
  GI50: > 100 µM
  TGI: > 100 µM
EKVX NSCLC
  GI50: > 100 µM
  TGI: > 100 µM
A549 NSCLC
  GI50: > 100 µM
  TGI: > 100 µM
NCI-H226 lung
  GI50: > 100 µM
  TGI: > 100 µM
UACC-257 melanoma
  GI50: > 100 µM
  TGI: > 100 µM
K-562 leukemia
  GI50: > 100 µM
  TGI: > 100 µM
SF-539 CNS
  GI50: > 100 µM
  TGI: > 100 µM
UACC-62 melanoma
  GI50: 52 µM
  TGI: > 100 µM
UO-31 renal
  GI50: > 100 µM
  TGI: > 100 µM
HOP-62 NSCLC
  GI50: > 100 µM
  TGI: > 100 µM
RPMI-8226 leukemia
  GI50: 44.6 µM
  TGI: > 100 µM
MALME-3M melanoma
  GI50: > 100 µM
  TGI: > 100 µM
SNB-78 CNS
  GI50: > 100 µM
  TGI: > 100 µM
TK-10 renal
  GI50: > 100 µM
  TGI: > 100 µM
HOP-92 NSCLC
  GI50: > 100 µM
  TGI: > 100 µM
SK-MEL-28 melanoma
  GI50: 69.6 µM
  TGI: > 100 µM
A498 renal
  GI50: > 100 µM
  TGI: > 100 µM
LOX IMVI melanoma
  GI50: 89.4 µM
  TGI: > 100 µM
MOLT-4 leukemia
  GI50: 68.4 µM
  TGI: > 100 µM
